Data taken from US20240246931A1, “COMPOUNDS AS PD1/PD-L1 INHIBITORS AND METHODS THEREOF” (JUBILANT PRODEL LLC, priority 2021, published 2024).
Like-named read-outs stand apart in the source and are kept apart here.

Experiments:
[1] = Metabolic stability in mouse liver microsomes; type: in vitro ADME; conditions: mouse liver microsomes 1.0 mg/mL, compound 1 μM, NADPH, second number of HLM/MLM cell
From the text: (§1) Metabolic Stability in Liver Microsomes
(§2) The purpose of this experiment is to measure the metabolic half-life of NCEs in sub-cellular fractions such as human liver microsomes (HLM) or mouse liver microsomes (MLM). This provides an in vitro means to calculate intrinsic hepatic clearance, and to support the prediction of human pharmacokinetics. This approach has been successfully utilized at early phase of drug discovery projects, to provide SAR input for reducing metabolic instability and for predicting in vivo hepatic clearance.
(§3) Procedure: Potassium phosphate buffer (66.7 mM, pH 7.4) containing liver microsomes (mouse and human) (1.0 mg/mL) was pre-incubated separately with compound (1 μM) and positive control (verapamil, 1 μM) in a 37° C. water bath for 5 min. The reactions were initiated by adding 20 μL of 10 mM NADPH. Reactions without NADPH (0 and 30 min) were also incubated to rule out non-NADPH metabolism or chemical instability in the incubation buffer. All reactions were terminated using 200 μL of ice-cold acetonitrile containing internal standard at 0, 5, 15 and 30 min. The vials were centrifuged at 3000 rpm for 15 min. The supernatants thus obtained were analyzed on LC-MS/MS to monitor the disappearance of test compound.

[2] = target: T1, PD-1/PD-L1 interaction (Homo sapiens, UniProt Q9NZQ7); assay: PD-1/PD-L1 HTRF binding assay (CisBio kit); conditions: HTRF PD1/PD-L1 inhibition assay
T1 construct: purchased CisBio 63ADK000CPAPEG
Method in brief: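 HTRF kit assay: compound was preincubated 15 min with tagged PD-L1 and PD-1 proteins, then Eu-cryptate and XL665 anti-tag antibodies were added for 1 h at room temperature. Readout was the 665/620 nm ratio ×10^4. IC50 was binned as A <100 nM, B 100–500 nM, C >500 nM.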

[3] = Metabolic stability in human liver microsomes; type: in vitro ADME; conditions: human liver microsomes 1.0 mg/mL, compound 1 μM, NADPH, first number of HLM/MLM cell
From the text: as §1, §2, §3

[4] = Brain exposure study in mice by IV route; type: in vivo; conditions: male, Balb/c, mouse; for Kp at 0.5 h: brain/plasma, read-out: Brain/Plasma ratio
From the text: Institutional Animal Ethical Committee (IAEC) of Jubilant Biosys (IAEC/JDC/2019/188R (for Mice) and IAEC/JDC/2019/189R (for Rat) nominated by CPCSEA (Committee for the Purpose of Control and Supervision of Experiments on Animals) approved the mice and rat pharmacokinetic experiments. Male Balb/c mice (˜6-8 weeks old with body weight range of 22-25 g) and male SD rats (6-8 weeks old with body weight range of 200-250 g) were procured from Vivo Biotech, Hyderabad, India. Animals were quarantined in Jubilant Biosys Animal House for a period of 7 days with a 12:12 h light: dark cycles, and prior to the study the animals were stratified as per body weight.
Procedure for Mice: Intravenous pharmacokinetics study was done at doses of 5, 10 mg/kg respectively at dose volume 5 mL/kg for IV route. Sparse sampling was done and at each time point three mice were used for blood sampling (˜100 μL) were collected from retro-orbital plexus at 0.083 (Only for IV) and 24 h. Blood samples collected in tubes containing K2 EDTA as anticoagulant and centrifuged for 5 min at 10,000 rpm in a refrigerated centrifuge (Biofuge, Heraeus, Germany) maintained at 4° C. for plasma separation. Group I (IV) received compound by intravenously by tail vein at […] in solution formulation. Blood concentration-time data of compound was analyzed by non-compartmental method using Phoenix WinNonlin Version 8.1.
Brain Exposure Study in Mice
The mice were placed in isoflurane anesthesia chamber; following complete anesthesia (3-5% isoflurane) blood sample (0.5 mL) was collected from retro-orbital plexus using mice capillary.
The mice were sacrificed by cervical dislocation. The dorsal surface of the skull was peeled away from the brain using bone cutter, dura matter was gently removed from surface of brain with help of forceps. Brain was gently taken out away from the head and placed in PBS buffer to remove blood. Brain was placed on blotting paper to remove the blood spots and transferred in pre-labelled tube. The isolated brain was weighed and homogenised using 5× volume of phosphate buffer saline (pH-7.4). During homogenization the brain homogenate was kept in ice till sample processing. The homogenate was processed by specified extraction process and analyzed by LC-MS/MS.
Evaluation of Brain Exposure Data by IV Route

T1 sequence (Q9NZQ7 19-238 limits assumed): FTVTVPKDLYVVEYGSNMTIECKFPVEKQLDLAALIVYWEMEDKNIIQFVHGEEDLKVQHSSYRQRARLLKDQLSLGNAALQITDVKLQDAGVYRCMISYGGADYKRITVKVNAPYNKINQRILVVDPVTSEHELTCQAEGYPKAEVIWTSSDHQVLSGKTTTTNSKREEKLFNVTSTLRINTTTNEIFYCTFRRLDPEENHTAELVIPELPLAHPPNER

SMILES	MLM % remaining @ 30 min [1]	IC50 [2] [nM]	HLM % remaining @ 30 min [3]	concentration at 0.5 h ([4]; brain, 10 mg/kg, 10 mpk, read-out: Brain (ng/g) Mean) [ng/g]	Kp at 0.5 h ([4]; 10 mg/kg, 10 mpk)	concentration at 0.5 h ([4]; plasma, 10 mg/kg, 10 mpk, read-out: Plasma (ng/mL) Mean) [ng/mL]	concentration at 0.5 h ([4]; brain, 5 mg/kg, 5 mpk, read-out: Brain (ng/g) Mean) [ng/g]	Kp at 0.5 h ([4]; 5 mg/kg, 5 mpk)	concentration at 0.5 h ([4]; plasma, 5 mg/kg, 5 mpk, read-out: Plasma (ng/mL) Mean) [ng/mL]
Cc1c(COc2cc(OCc3cncc(C#N)c3)c(CN3CC4(CC4)C[C@H]3CO)c3c2CCC3)cccc1-c1ccccc1 [Example 25, (S)-5-(((4-((6-(hydroxymethyl)-5-azaspiro[2.4]heptan-5-yl)methyl)-7-((2-methyl-[1,1′-biphenyl]-3-yl)methoxy)-2,3-dihydro-1H-inden-5-yl)oxy)methyl)nicotinonitrile]	61%	< 100	45%						
Cc1c(COc2cc(OCc3cncc(C#N)c3)c(CN3CC4(CCC3CO)CC4)c3c2CCC3)cccc1-c1ccccc1 (stereo not drawn) [Example 11, 5-(((4-((6-(hydroxymethyl)-5-azaspiro[2.5]octan-5-yl)methyl)-7-((2-methyl-[1,1′-biphenyl]-3-yl)methoxy)-2,3-dihydro-1H-inden-5-yl)oxy)methyl)nicotinonitrile]	11%	< 100	21%						
Cc1c(COc2cc(OCCF)c(CN3CCCC[C@H]3CO)c3c2CCC3)cccc1-c1ccccc1 [Example 27, (S)-(1-((5-(2-fluoroethoxy)-7-((2-methyl-[1,1′-biphenyl]-3-yl)methoxy)-2,3-dihydro-1H-inden-4-yl)methyl)piperidin-2-yl)methanol]	84%	< 100	91%	11600	12.2	949			
Cc1c(COc2cc(OCc3cncc(C#N)c3)c(CN3CCC3CO)c3c2CCC3)cccc1-c1ccccc1 (stereo not drawn) [Example 10, 5-(((4-((2-(hydroxymethyl)azetidin-1-yl)methyl)-7-((2-methyl-[1,1′-biphenyl]-3-yl)methoxy)-2,3-dihydro-1H-inden-5-yl)oxy)methyl)nicotinonitrile]	70%	< 100	69%						
N#Cc1cncc(COc2cc(OCc3cccc(-c4ccccc4)c3C#N)c3c(c2CN2CC4(CC4)C[C@H]2CO)CCC3)c1 [Example 26, (S)-5-(((7-((2-cyano-[1,1′-biphenyl]-3-yl)methoxy)-4-((6-(hydroxymethyl)-5-azaspiro[2.4]heptan-5-yl)methyl)-2,3-dihydro-1H-inden-5-yl)oxy)methyl)nicotinonitrile]	5%	< 100	6%						
Cc1c(COc2cc(OCCCCF)c(CN3CCCC[C@H]3CO)c3c2CCC3)cccc1-c1ccccc1 [Example 31, (S)-(1-((5-(4-fluorobutoxy)-7-((2-methyl-[1,1′-biphenyl]-3-yl)methoxy)-2,3-dihydro-1H-inden-4-yl)methyl)piperidin-2-yl)methanol]	79%	< 100	65%				2450	4.9	501
Cc1c(COc2cc(OCc3cncc(C#N)c3)c(CN3CCCC[C@H]3CO)c3c2CCC3)cccc1-c1ccccc1 [Example 1, (S)-5-(((4-((2-(hydroxymethyl)piperidin-1-yl)methyl)-7-((2-methyl-[1,1′-biphenyl]-3-yl)methoxy)-2,3-dihydro-1H-inden-5-yl)oxy)methyl)nicotinonitrile]	83%	< 100	72%						
Cc1c(COc2cc(OCc3cncc(C#N)c3)c(CN3CCCC4CC43CO)c3c2CCC3)cccc1-c1ccccc1 (stereo not drawn) [Example 35, 5-(((4-((1-(hydroxymethyl)-2-azabicyclo[4.1.0]heptan-2-yl)methyl)-7-((2-methyl-[1,1′-biphenyl]-3-yl)methoxy)-2,3-dihydro-1H-inden-5-yl)oxy)methyl)nicotinonitrile]	3/3%	< 100	3/3%						
N#Cc1cccc(COc2cc(OCc3cccc(-c4ccccc4)c3C#N)c3c(c2CN2CCC[C@H]2CO)CCC3)c1 [Example 4, (S)-3-(((6-((3-cyanobenzyl)oxy)-7-((2-(hydroxymethyl)pyrrolidin-1-yl)methyl)-2,3-dihydro-1H-inden-4-yl)oxy)methyl)-[1,1′-biphenyl]-2-carbonitrile]	20/20%	< 100	20/20%						
N#Cc1cncc(COc2cc(OCc3cccc(-c4ccccc4)c3C#N)c3c(c2CN2CCCC[C@H]2CO)CCC3)c1 [Example 5, (S)-5-(((7-((2-cyano-[1,1′-biphenyl]-3-yl)methoxy)-4-((2-(hydroxymethyl)piperidin-1-yl)methyl)-2,3-dihydro-1H-inden-5-yl)oxy)methyl)nicotinonitrile]	13%	< 100	16%						
